The values that follow come from US20250154145A1, “OXER1 ANTAGONISTS AND USES THEREOF” (Fairhaven Pharmaceuticals Ins., priority 2021, published 2025).

In this assay the test system is neutrophils. In words: Neutrophil calcium flux assay (5-OXO-ETE-stimulated, Indo-1 fluorescence). The class given is cell-based. Conditions: 5-OXO-ETE-stimulated calcium flux. As to the method:
After isolation, neutrophils were resuspended in PBS without calcium and Magnesium (PBS −/−) at a concentration of 5×10^6 cells/ml. 2ul of Indo-1 (1 mM) were added per ml of cells. After incubation at 37° C. for 30 minutes, cells were washed twice in PBS −/− and resuspended at 5×10^6 cells/ml in assay buffer (HBSS 1× with calcium and magnesium and […]). In a 96-well Black optical clear bottom plate 100 μL of neutrophil were dispensed to each well. After incubation at 37° C. for 5 minutes, 50 μL of assay buffer or 3× antagonist were added and incubated for 5 min in a Tecan Spark plate reader (Tecan, Morrisville, NC). Baseline was measured for 30 sec (wavelength setup: excitation: 331 nm and emission:410 nm). When baseline is stable, 50p of 5-OXO-ETE at 200 nM (4×) or HBSS was added to appropriate wells. Fluorescence was measured every 5 seconds for 30 cycles. Results are expressed as Net fluorescence (FLU minus Background and injection peak). All data were analyzed using GraphPad Prism version 9 for Windows (GraphPad, San Diego, CA).
On the technique in general: Calcium flux is commonly read through the fluorescence of an indicator in the cells.

A value given as a limit tells only on which side of the number the result lay.

One may read the IC50 as the concentration needed to halve the response being measured.

For `CC(CC(=O)O)CC(=O)c1c(CCCCOCc2cncnc2)n(C)c2ccc(C#N)cc12` (centres unmarked) [Compound I-393], the IC50 (Neutrophil) is more than 0.3 µM.
Still for that read-out and setting: the same measure for `Cn1cc(-c2cccc(Cl)c2)c(C(=O)N2CC[C@H](C(=O)O)C2)c1CCCCOCc1cccc(Cl)c1` [Compound I-167]: more than 0.3 µM.
Take `C[C@H](CC(=O)O)CC(=O)c1c(CCCCOCc2cc(Cl)cc(Cl)c2)n(C)c2ncc(C#N)cc12` [Compound I-385]: the IC50 (Neutrophil) is less than 0.1 µM.
Same read-out and setting: the same measure for `C[C@@H](CC(=O)O)CC(=O)c1c(CCCCOCc2cccc(C#N)c2)n(C)c2ncc(Cl)cc12` [Compound I-213]: more than 0.3 µM.
On the same count and under the same terms, the value for `Cn1c(CCCCCCC#CC2CC(F)(F)C2)c(C(=O)N2CC[C@H](C(=O)O)C2)c2cc(Br)cnc21` [Compound I-345] was 0.1 to 0.3 µM; that for `Cn1nc(-c2cccc(Cl)c2)c(C(=O)N2CC[C@H](C(=O)O)C2)c1CCCCOCc1cccc(Cl)c1` [Compound I-191] was more than 0.3 µM.
Still for that read-out and setting: the value for `CC(CC(=O)O)CC(=O)c1c(CCCCCC(O)c2ccc(F)c(Cl)c2)n(C)c2ncc(C#N)cc12` (centres unmarked) [Compound I-301] was less than 0.1 µM.
Take `C[C@H](CC(=O)O)CC(=O)c1c(CCCCCCCC#CC2CC(F)(F)C2)n(C)c2ncc(C#N)cc12` [Compound I-335]: the IC50 (Neutrophil) was less than 0.1 µM.
On the same count and under the same terms, the value for `CC(CC(=O)O)CC(=O)c1c(CCCCCCc2cccc(Cl)c2)n(C[C@@H](O)CO)c2ncc(C#N)cc12` (some centres unmarked) [Compound I-284] was less than 0.1 µM; that for `C[C@H](CC(=O)O)CC(=O)c1c(CCCCCCc2ccccn2)n(C)c2ccc(Cl)cc12` [Compound I-54] was 0.1 to 0.3 µM.
For `C[C@H](CC(=O)O)CC(=O)c1c(CCCCOCc2cccc(Cl)c2)n(C)c2cnccc12` [Compound I-407], the IC50 (Neutrophil) is less than 0.1 µM.
Consider `CC(CC(=O)O)CC(=O)c1c(CCCOCC(F)(F)c2cccc(Cl)c2)n(C)c2ccc(Cl)cc12` (centres unmarked) [Compound I-430], for which the IC50 (Neutrophil) is less than 0.1 µM.
Same read-out and setting: the value for `Cn1c(COCCCCC#CC2CC(F)(F)C2)c(C(=O)N2CC[C@H](C(=O)O)C2)c2cc(Cl)ccc21` [Compound I-349] was more than 0.3 µM.
Consider `CC(CC(=O)O)CC(=O)c1c(CCCCCC(O)c2cccc(C#N)c2)n(C)c2ncc(Cl)cc12` (single isomer, unassigned) [Compound I-306], for which the IC50 was more than 0.3 µM.
Regarding `CC(CC(=O)O)CC(=O)c1c2cc(C#N)cnc2n(C)c1[C@H]1CC[C@@H](OCc2cccc(Cl)c2)CC1` (some centres unmarked) [Compound I-292], the IC50 (Neutrophil) was more than 0.3 µM.
As to `C[C@H](CC(=O)O)N(C)C(=O)c1c(CCCCOCc2cccc(Cl)c2)n(C)c2ncc(C#N)cc12` [Compound I-240], the IC50 (Neutrophil) is more than 0.3 µM.
On the same count and under the same terms, the same measure for `CC[C@H](CC(=O)O)CC(=O)c1c(CCCCOCc2ccccc2)n(C)c2ncc(C#N)cc12` [Compound I-438]: more than 0.3 µM.
The same measure, in the same setting: the value for `Cn1c(CCCCCCC#CC2CC(F)(F)C2)c(C(=O)N2CC[C@H](C(=O)NS(C)(=O)=O)C2)c2cc(C#N)cnc21` [Compound I-363] was more than 0.3 µM.
On the same count and under the same terms, the same measure for `Cn1c(CCCCCCc2cccc(Cl)c2)c(C(=O)N2CCC[C@H](C(=O)O)C2)c2cc(Cl)ccc21` [Compound I-155]: 0.1 to 0.3 µM; for `CC(CC(=O)O)CC(=O)c1c(CCCCOCc2ccc(Cl)cc2)n(C)c2ncc(C#N)cc12` (centres unmarked) [Compound I-290]: 0.1 to 0.3 µM; for `C[C@H](CC(=O)O)CC(=O)c1c(CCOCC#Cc2cccnc2)n(C)c2ncc(Cl)cc12` [Compound I-228]: more than 0.3 µM.
Turning to `Cn1c(CCCCCCc2cccc(Cl)c2)c(C(=O)N2CC(CC(=O)O)C2)c2cc(Cl)cnc21` [Compound I-154], the IC50 (Neutrophil) is more than 0.3 µM.
On the same count and under the same terms, the same measure for `Cn1c(CCCCCCc2cccc(Cl)c2)c(C(=O)N2CC[C@H](c3nnn[nH]3)C2)c2cc(C#N)cnc21` [Compound I-223]: less than 0.1 µM; for `C[C@H](CC(=O)O)CC(=O)c1c(CCCCCCC#CC2CC(F)(F)C2)[nH]c2ccc(Cl)cc12` [Compound I-323]: less than 0.1 µM.
The same measure, in the same setting: the value for `C[C@H](CC(=O)O)CC(=O)c1c(CCCCCCC#CC2CC(F)(F)C2)n(C)c2ncc(Cl)cc12` [Compound I-320] was less than 0.1 µM; that for `Cn1c(CCCCCCC#CC2CC(F)(F)C2)c(C(=O)N2CC[C@H](C(=O)O)C2)c2cc(Cl)ccc21` [Compound I-339] was less than 0.1 µM.
Still for that read-out and setting: the value for `C[C@H](CC(=O)O)CC(=O)c1c(CCOCCNc2cccc(Cl)c2)n(C)c2ccc(Cl)cc12` [Compound I-142] was less than 0.1 µM; that for `C[C@@H](CC(=O)O)CC(=O)c1c(CCCCOCc2cccc(C#N)c2)n(C)c2ccncc12` [Compound I-397] was more than 0.3 µM; that for `C[C@H](CC#N)CC(=O)c1c(CCCCOCc2cccc(Cl)c2)n(C)c2ncc(Cl)cc12` [Compound I-357] was more than 0.3 µM.
Turning to `CC(CC(=O)O)CC(=O)c1c(CCCCCCc2cccc(Cl)c2)n(C)c2ccc(C(F)(F)F)cc12` (centres unmarked) [Compound I-58], the IC50 (Neutrophil) was less than 0.1 µM.
Same read-out and setting: the value for `Cn1c(CCCCCCC#CC2CC(F)(F)C2)c(C(=O)N2CC[C@H](c3noc(=O)[nH]3)C2)c2cc(C#N)cnc21` [Compound I-456] was more than 0.3 µM; that for `Cn1c(CCCCCNc2cccc(Cl)c2)c(C(=O)N2CC[C@H](C(=O)O)C2)c2cc(Cl)cnc21` [Compound I-148] was more than 0.3 µM.
With `C[C@H](CC(=O)O)CC(=O)c1c(CCCCOCc2ccc(F)cc2)n(C)c2ncc(C#N)cc12` [Compound I-368], the IC50 was in the range of 0.1 to 0.3 µM.
With `C[C@H](CC(=O)O)CC(=O)c1c(CCCCCOc2ccccn2)n(C)c2ccc(Cl)cc12` [Compound I-131], for the setting “Neutrophil”, the IC50 was more than 0.3 µM.
Take `CC(CC(=O)O)CC(=O)c1c(CCCC(C)OCc2ccccc2)n(C)c2ncc(C#N)cc12` (centres unmarked) [Compound I-435]: where the note is “Neutrophil”, the IC50 lay within 0.1 to 0.3 µM.
Still for that read-out and setting: the same measure for `Cn1c(CCCCCCc2cccc(Cl)c2)c(C(=O)N2CC[C@H](C(=O)O)C2)c2cc(Cl)cnc21` [Compound I-147]: more than 0.3 µM; for `C[C@@H](CC(=O)O)CC(=O)c1c(CCCCOCc2cccc(F)c2)n(C)c2ncc(C#N)cc12` [Compound I-294]: more than 0.3 µM; for `C[C@H](CC(=O)O)CC(=O)c1c(CCCCC#Cc2cccnc2)n(C)c2ccc(Cl)cc12` [Compound I-176]: less than 0.1 µM.
On the same count and under the same terms, the value for `CC(CC(=O)O)CC(=O)c1c(CCCCCC(O)c2cccc(C(=O)N(C)C)c2)n(C)c2ncc(C#N)cc12` (centres unmarked) [Compound I-314] was less than 0.1 µM; that for `C[C@H](CC(=O)O)CC(=O)c1c(CCCCCNc2ncccn2)n(C)c2ccc(Cl)cc12` [Compound I-82] was 0.1 to 0.3 µM.
Same read-out and setting: the same measure for `Cn1c(CCCCOCc2ccccc2)c(C(=O)N2CC[C@H](C(=O)O)C2)c2cnccc21` [Compound I-441]: more than 0.3 µM; for `CC(CC(=O)O)CC(=O)c1c(CCCCOCc2cccc(Cl)c2)n(C)c2ncc(CN(C)C)cc12` (centres unmarked) [Compound I-375]: more than 0.3 µM; for `Cn1c(CCCCCCC#CC2CC(F)(F)C2)c(C(=O)N2CC[C@@H](C(=O)O)C2)c2cc(C#N)cnc21` [Compound I-341]: more than 0.3 µM.
As for `COc1ccc2c(c1)c(C(=O)C[C@H](C)CC(=O)O)c(CCCCCCc1cccc(Cl)c1)n2C` [Compound I-96], the IC50 (Neutrophil) is less than 0.1 µM.
In the case of `C[C@H](CC(=O)O)NC(=O)c1c(CCCCOCc2cccc(Cl)c2)n(C)c2ncc(C#N)cc12` [Compound I-238], the IC50 (Neutrophil) was more than 0.3 µM.
Take `C[C@H](CC(=O)O)CC(=O)c1c(CCCCOCc2ccc(F)cc2)n(C)c2ncc(C#N)cc12` [Compound I-249]: the IC50 (Neutrophil) was less than 0.1 µM.
Same read-out and setting: the same measure for `Cn1c(CCCCOCc2cccc(Cl)c2)c(C(=O)N2CC[C@H](C(=O)O)C2)c2cc(Cl)cnc21` [Compound I-175]: more than 0.3 µM; for `C[C@H](CC(=O)O)CC(=O)c1c(CCCCCOCc2ccccc2)n(C)c2ncc(C#N)cc12` [Compound I-422]: 0.1 to 0.3 µM; for `C[C@H](CC(=O)O)CC(=O)c1c(CCCCOCC23CC(C#N)(C2)C3)n(C)c2ccc(Cl)cc12` [Compound I-108]: 0.1 to 0.3 µM.
Same read-out and setting: the same measure for `C[C@@H](CC(=O)O)CC(=O)c1c(CCCCO[C@H](C)c2ccccc2)n(C)c2ncc(C#N)cc12` [Compound I-433]: more than 0.3 µM; for `Cn1c(CCCCCCC#CC2CC(F)(F)C2)c(C(=O)N2CC[C@H](C(=O)O)C2)c2cc(C#N)cnc21` [Compound I-340]: less than 0.1 µM; for `C[C@H](CC(=O)O)CC(=O)c1c(CCCCCOCc2cccc(Cl)c2)n(C)c2ccc(C#N)cc12` [Compound I-425]: 0.1 to 0.3 µM.
As to `CC(=O)NCCCCCc1c(C(=O)C[C@H](C)CC(=O)O)c2cc(Cl)ccc2n1C` [Compound I-126], the IC50 (Neutrophil) is more than 0.3 µM.
The same measure, in the same setting: the value for `C[C@H](CC(=O)O)CC(=O)c1c(CCCCCCc2cncs2)n(C)c2ncc(C#N)cc12` [Compound I-371] was less than 0.1 µM; that for `C[C@H](CC(=O)O)CC(=O)c1c(CCCCOCC#CC2CC(F)(F)C2)n(C)c2ccc(Cl)cc12` [Compound I-324] was less than 0.1 µM; that for `C[C@@H](CC(=O)O)CC(=O)c1c(CCCCOCc2cccc(OC(F)(F)F)c2)n(C)c2cnccc12` [Compound I-409] was more than 0.3 µM.
The same measure, in the same setting: the same measure for `Cn1c(CCCCOCc2cccc(Cl)c2)c(C(=O)N2CCC[C@H](C(=O)O)C2)c2cc(C#N)cnc21` [Compound I-181]: more than 0.3 µM; for `CC(=O)N(C)c1cccc(COCCCCc2c(C(=O)CC(C)CC(=O)O)c3cc(C#N)cnc3n2C)c1` (centres unmarked) [Compound I-299]: 0.1 to 0.3 µM.
The same measure, in the same setting: the value for `C[C@H](OCCCCc1c(C(=O)N2CC[C@H](C(=O)O)C2)c2cc(C#N)cnc2n1C)c1ccccc1` [Compound I-453] was more than 0.3 µM.
